molecular target: SARS-CoV-2 Papain-Like Protease (PLpro) (Severe acute respiratory syndrome coronavirus 2 (2019-nCoV) (SARS-CoV-2), UniProt P0DTD1); assay: biochemical; details: PLpro enzymatic fluorescence assay; class symbols; read-out: PLpro IC50

SMILES	IC50 [µM]
Cc1ccc(OCC2CCN2C)cc1C(=O)NC1(c2cccc3ccc(F)cc23)CC1 (centres unmarked) [Compound 444, N-(1-(7-Fluoronaphthalen-1-yl)cyclopropyl)-2-methyl-5-((1-methylazetidin-2-yl)methoxy)benzamide]	< 0.1
Cc1ccc(OCC(C)N)cc1C(=O)NC1(c2cccc3cnccc23)CC1 (centres unmarked) [Compound 446, 5-(2-Aminopropoxy)-N-(1-(isoquinolin-5-yl)cyclopropyl)-2-methylbenzamide]	< 0.1
Cc1ccc(OCC2CCN2C)cc1C(=O)NC1(c2nccc3ccccc23)CC1 (centres unmarked) [Compound 454, N-(1-(Isoquinolin-1-yl)cyclopropyl)-2-methyl-5-((1-methylazetidin-2-yl)methoxy)benzamide]	0.1 to 1
COc1cc2c(C3(NC(=O)c4cc(OCC5CCN5C)ccc4C)CC3)cccc2cn1 (centres unmarked) [Compound 456, N-(1-(3-Methoxyisoquinolin-5-yl)cyclopropyl)-2-methyl-5-((1-methylazetidin-2-yl)methoxy)benzamide]	< 0.1
Cc1ccc(OCC2CCN2C)cc1C(=O)NC1(c2c(C)ccc3ccccc23)CC1 (centres unmarked) [Compound 458, 2-Methyl-5-((1-methylazetidin-2-yl)methoxy)-N-(1-(2-methylnaphthalen-1-yl)cyclopropyl)benzamide]	< 0.1
Cc1ccc(N2CC(N)C2)cc1C(=O)NC1(c2cccc3ccccc23)CC1 [Compound 464, 5-(3-Aminoazetidin-1-yl)-2-methyl-N-(1-(naphthalen-1-yl)cyclopropyl)benzamide]	< 0.1
Cc1ccc(OCC2CCN2C)cc1C(=O)NC1(c2ccnc3ccccc23)CC1 (centres unmarked) [Compound 473, 2-Methyl-5-((1-methylazetidin-2-yl)methoxy)-N-(1-(quinolin-4-yl)cyclopropyl)benzamide]	< 0.1

same assay, conditions: SARS-CoV-2 PLpro enzymatic fluorescence assay; read-out: PLpro IC50

SMILES	IC50 [µM]
Cc1ccc(OC[C@H]2C[C@@H](F)CN2C)cc1C(=O)NC1(c2cccc3ccccc23)CC1 [Compound 437, 5-(((2R,4R)-4-Fluoro-1-methylpyrrolidin-2-yl)methoxy)-2-methyl-N-(1-(naphthalen-1-yl)cyclopropyl)benzamide]	< 0.1
Cc1ccc(OCCN(C)C)cc1C(=O)NC1(c2cc(C#N)cc3ccccc23)CC1 [Compound 443, N-(1-(3-Cyanonaphthalen-1-yl)cyclopropyl)-5-(2-(dimethylamino)ethoxy)-2-methylbenzamide]	< 0.1
COc1cc(C2(NC(=O)c3cc(OCC(C)N)ccc3C)CC2)c2ccccc2c1 (centres unmarked) [Compound 445, 5-(2-Aminopropoxy)-N-(1-(3-methoxynaphthalen-1-yl)cyclopropyl)-2-methylbenzamide]	< 0.1
Cc1ccc(COC2CN(C)C2)cc1C(=O)NC1(c2cccc3ccccc23)CC1 [Compound 447, 2-Methyl-5-(((1-methylazetidin-3-yl)oxy)methyl)-N-(1-(naphthalen-1-yl)cyclopropyl)benzamide]	0.1 to 1
C#CC(NC(=O)c1cc(OCC2CCN2C)ccc1C)c1cccc2ccccc12 (centres unmarked) [Compound 448, 2-Methyl-5-((1-methylazetidin-2-yl)methoxy)-N-(1-(naphthalen-1-yl)prop-2-yn-1-yl)benzamide]	1 to 5
Cc1ccc(CCC2CCN2)cc1C(=O)NC1(c2cccc3ccccc23)CC1 (centres unmarked) [Compound 449, 5-(2-(Azetidin-2-yl)ethyl)-2-methyl-N-(1-(naphthalen-1-yl)cyclopropyl)benzamide]	< 0.1
COc1cc(C2(NC(=O)c3cc(OCC4CCN4C)ccc3C)COC2)c2ccccc2c1 (centres unmarked) [Compound 450, N-(3-(3-Methoxynaphthalen-1-yl)oxetan-3-yl)-2-methyl-5-((1-methylazetidin-2-yl)methoxy)benzamide]	< 0.1
CNCCOc1ccc(C)c(C(=O)NC2(c3cccc4ccccc34)COC2)c1 [Compound 451, 2-Methyl-5-(2-(methylamino)ethoxy)-N-(3-(naphthalen-1-yl)oxetan-3-yl)benzamide]	< 0.1
Cc1ccc(CCC(N)=O)cc1C(=O)NC1(c2cccc3ccccc23)CC1 [Compound 452, 5-(3-Amino-3-oxopropyl)-2-methyl-N-(1-(naphthalen-1-yl)cyclopropyl)benzamide]	0.1 to 1
CNCCOc1ccc(C)c(C(=O)NC2(c3cccc4ccccc34)CNC2)c1 [Compound 453, 2-Methyl-5-(2-(methylamino)ethoxy)-N-(3-(naphthalen-1-yl)azetidin-3-yl)benzamide]	> 5
Cc1ccc(CCC2CCN2C)cc1C(=O)NC1(c2cccc3ccccc23)CC1 (centres unmarked) [Compound 455, 2-Methyl-5-(2-(1-methylazetidin-2-yl)ethyl)-N-(1-(naphthalen-1-yl)cyclopropyl)benzamide]	< 0.1
Cc1ccc(OCC2CCN2C)cc1C(=O)NC1(c2c(C(C)C)ccc3ccccc23)CC1 (centres unmarked) [Compound 457, N-(1-(2-Isopropylnaphthalen-1-yl)cyclopropyl)-2-methyl-5-((1-methylazetidin-2-yl)methoxy)benzamide]	0.1 to 1
C#CC(NC(=O)c1cc(N)ccc1C)c1cccc2ccccc12 (centres unmarked) [Compound 459, 5-Amino-2-methyl-N-(1-(naphthalen-1-yl)prop-2-yn-1-yl)benzamide]	> 5
Cc1ccc(OCC2CCN2C)cc1C(=O)NC1(c2cc(Br)cc3ccccc23)CC1 (centres unmarked) [Compound 461, N-(1-(3-Bromonaphthalen-1-yl)cyclopropyl)-2-methyl-5-((1-methylazetidin-2-yl)methoxy)benzamide]	< 0.1
COc1cc(C2(NC(=O)c3cc(OC[C@@H]4CCCN4)ccc3C)CC2)c2cccnc2c1 [Compound 462, (S)-N-(1-(7-Methoxyquinolin-5-yl)cyclopropyl)-2-methyl-5-(pyrrolidin-2-ylmethoxy)benzamide]	< 0.1
Cc1ccc(N2CCC(N)CC2)cc1C(=O)NC1(c2cccc3ccccc23)CC1 [Compound 463, 5-(4-Aminopiperidin-1-yl)-2-methyl-N-(1-(naphthalen-1-yl)cyclopropyl)benzamide]	0.1 to 1
Cc1ccc(OCC2CCN2C)cc1C(=O)NC1(c2cccc3ccc(C(=O)O)cc23)CC1 (centres unmarked) [Compound 465, 8-(1-(2-Methyl-5-((1-methylazetidin-2-yl)methoxy)benzamido)cyclopropyl)-2-naphthoic acid]	1 to 5
COc1cc(C2(NC(=O)c3cc(OCC4CCN4C)ccc3C)CC2)c2ccc(F)cc2n1 (centres unmarked) [Compound 467, N-(1-(7-Fluoro-2-methoxyquinolin-4-yl)cyclopropyl)-2-methyl-5-((1-methylazetidin-2-yl)methoxy)benzamide]	< 0.1
Cc1ccc(OCC2CCN2C)cc1C(=O)NC1(c2cc(-c3cccs3)cc3ccccc23)CC1 (centres unmarked) [Compound 468, 2-Methyl-5-((1-methylazetidin-2-yl)methoxy)-N-(1-(3-(thiophen-2-yl)naphthalen-1-yl)cyclopropyl)benzamide]	< 0.1
Cc1ccc(OCC(C)N)cc1C(=O)NC1(c2cc(-c3ccccc3)cc3ccccc23)CC1 (centres unmarked) [Compound 470, 5-(2-Aminopropoxy)-2-methyl-N-(1-(3-phenylnaphthalen-1-yl)cyclopropyl)benzamide]	< 0.1
CCS(=O)(=O)c1cc(C2(NC(=O)c3cc(OCCN(C)C)ccc3C)CC2)c2ccccc2c1 [Compound 471, 5-(2-(Dimethylamino)ethoxy)-N-(1-(3-(ethylsulfonyl)naphthalen-1-yl)cyclopropyl)-2-methylbenzamide]	0.1 to 1
Cc1ccc(CCCN)cc1C(=O)NC1(c2cccc3ccccc23)CC1 [Compound 472, 5-(3-Aminopropyl)-2-methyl-N-(1-(naphthalen-1-yl)cyclopropyl)benzamide]	< 0.1
